Where “and” joins values, the source holds several entries; their conditions need not be identical. Equal values may be shown once. Entries after “also recorded” stand apart in the source; their conditions may differ. Where a name gives a salt, the structure may show the parent alone. Marks after values point to notes of the source that are not given here.
Tests used:
[1] = pH of API formulations (pH meter); format: physicochemical; settings: for final pH: after 2M NaOH
[2] = Stability of tigecycline FB CapAcid solution on standing; format: physicochemical; settings: 70 mg/mL FB with 1.1 molar equivalents of CapAcid, FIG. 1A
Procedure: The formulation of Tigecycline FB CapAcid was prepared as follows. The preparation procedure for Tigecycline FB CapAcid Formulation was modified from the general procedure. A solution of 70 mg/mL Tigecycline FB (69.9 mg, 0.12 mmol) and 1.1 equivalents of CapAcid, H^+ equivalents, (43.7 mg moisture corrected, 40.8 mg active, 0.02 mmol, 0.13 mmol H^+) was prepared by dissolving CapAcid in 700 μL of HPLC grade water, then adding the freebase and stirring until a homogenous solution formed. Benzethonium chloride (10 μL, 1 mg/mL, 0.01% final concentration) was added to the solution. NaOH (2M) was added until the pH was 7.00±0.01. The solution was diluted to 1 mL and the final pH was determined to be 6.99. […] The solution was filtered through a 0.45 micron syringe filter.

[3] = in water, cited from earlier work; for Reported Freebase Solubility: vendor or literature value
[4] = Osmolality of API formulations (micro osmometer, triplicate); format: physicochemical
Procedure: Osmolality readings were obtained on an Advanced Instruments Advanced™ Micro Osmometer Model 3300 (Advanced Instruments, Inc. Norwood, MA, USA). Saline solutions (0.9% and 3%) were run as positive controls. Each sample was calculated as the mean from back-to-back triplicate measurements. When replicate batches were measured, data was reported as mean±SEM.
The procedure was performed on a 2 mL scale. […] Benzethonium chloride (20 μL of a 1% solution, 0.01% final concentration) was added via micropipette. The pH was adjusted to ˜7.00 with 2M sodium hydroxide, or either 1M or 2M HCl in some cases, and then the mixture was transferred to a 2 mL volumetric flask to be diluted with HPLC grade water. […]
Method 1: In a 5 mL borosilicate glass test tube which contained a Teflon-coated magnetic stir bar, Captisol®-Na+ ([…], H+ equivalents, moisture corrected) was dissolved in HPLC grade water (1.6-1.7 mL), API salt (HCl in most cases) (70 mg/mL FB equivalents) was added and the mixture was stirred until a homogenous transparent solution formed. Benzethonium chloride (20 μL of a 1% solution, giving a 0.01% final concentration) was added via micropipette. The pH was adjusted to ˜7.00 with 1M or 2M sodium hydroxide, or either 1M or 2M HCl in some cases, and then the mixture was transferred to a 2 mL volumetric flask to be diluted with HPLC grade water. […]
Benzethonium chloride (20 μL of a 1% solution, giving a 0.01% final concentration) was added via micropipette. The pH was adjusted to ˜7.00 with 1M or 2M sodium hydroxide, or either 1M or 2M HCl in some cases, and then the mixture transferred to a 2 mL volumetric flask to be diluted with HPLC grade water. […]
The solution was transferred to a 2 mL volumetric flask and diluted to the target volume with HPLC grade water. […]

[5] = cited from earlier work
[6] = literature value; cited from earlier work
[7] = Dissolution of API freebase in aqueous CapAcid / Captisol solutions at defined API:CapAcid ratios, visual inspection and NaOH titration; settings: for Successful in a 70 mg/mL API-CapAcid Formulation (Y/N) / concentration (FB equivalents) at which the freebase dissolved: water; for Successful in a 70 mg/mL API-CapAcid Formulation (Y/N): 70 mg/mL FB
[8] = Visual dissolution / precipitation of API free base-CapAcid formulations at stated API:CapAcid ratios; format: physicochemical
[9] = API-CapAcid salts prepared in ethanol, then 70 mg of solid added to 1 mL water (visual); format: physicochemical
Procedure: The resulting solid API-CapAcid salts were then obtained as solids by evaporation of the ethanol, followed by lyophilization.
In a scintillation vial, a solution of API FB (100 mg) and CapAcid (1 molar equivalent, moisture corrected) was prepared by dissolving Cap Acid in 200 proof ethanol (5 mL) and then adding the freebase API. […] Whether or not the freebase dissolved after the second addition of ethanol, the initial pH, prior to titration, was recorded. The vial was then wrapped in foil and left uncovered in the hood to allow the ethanol to evaporate. After the ethanol fully evaporated, a small amount of HPLC grade water (3-5 mL) was added to each to see if the product would dissolve or become a suspension in the water. The solution was then lyophilized to remove the water. The product was ground with a stir rod and 70±0.1 mg was added to 1 mL of water to see if it would dissolve.

[10] = Concentration test of rimantadine HCl in water; format: physicochemical
Procedure: A solution of 50 mg/mL rimantadine HCl, FB equivalents, (120.3 mg, 0.56 mmol), was prepared by adding 1.7 mL of HPLC grade water and an addition of a solution of benzethonium chloride (20 μL, […], 0.01% final concentration). […] It was diluted until it did dissolve, which took a total of 4.6 mL of HPLC (including the initial 1.7 mL). The solution was left to stir overnight. The solution was diluted to 5 mL, making the final concentration 20 mg/mL. The pH was 6.83 and the solution was filtered through a 0.20 micron syringe filter. The osmolality was 205 mOsm/kg.
A separate test was performed on another 50 mg/mL solution of rimantadine HCl, FB equivalents (60.2 mg, 0.28 mmol), dissolved in 800 μL of HPLC grade water and an addition of a solution of benzethonium chloride (10 μL, 1 mg/mL, 0.01% final concentration).

[11] = Osmolality of API formulations (micro osmometer, triplicate); format: physicochemical; remark: listed apart in the source
[12] = cited from earlier work; remark: listed apart in the source
[13] = Reported solubility in water of APIs (freebase and salt); format: physicochemical
Procedure: Table 5 lists the solubility and pKa values of the various APIs described above.
A challenge was that reliable solubility data for certain APIs was difficult to locate (especially for the freebase forms). As such in a number of instances only predicted values could be located and in the case of rimantidine HCl this value was inconsistent with our empirical results. Likewise, the drugbank predicted value for tigecycline was 0.01455 mg/mL, whereas a literature value was 0.45 mg/mL. The solubility of a range of poor to moderately to highly soluble APIs as freebases as well as common commercial API salt forms will be determined.

[14] = 70 mg/mL API FB, 1.1 equivalents CapAcid, before NaOH/HCl
[15] = API FB CapAcid formulation, 70 mg/mL API FB, 1.1 equivalents CapAcid (H^+ equivalents), after titration
[16] = CapAcid-API Freebase Formulation (70 mg/mL API FB, 1.1 molar equivalent CapAcid), after pH titration with NaOH or HCl
[17] = concentration test solution diluted to 20 mg/mL, with benzethonium chloride

CN(C)c1cc(NC(=O)CNC(C)(C)C)c(O)c2c1C[C@H]1C[C@H]3[C@H](N(C)C)C(O)=C(C(N)=O)C(=O)[C@@]3(O)C(O)=C1C2=O [Tigecycline, tigecycline]
pH of the solution prior to titration ([1]; 70 mg/mL API FB, 1 equivalent 6M HCl, 1.1 equivalents Captisol®-Na^+, before NaOH/HCl): 5.61
pH of the solution prior to titration [1, 14]: 5.19 and 5.37
stability of the formulation [2]: degradation after 24 hours
Reported Freebase Solubility [3]: 0.45 mg/mL
Osmolality ([4]; 70 mg/mL API FB and 1 equivalent of 6M HCl in water): 138.3 mOsmol/kg
Osmolality ([4]; 70 mg/mL API FB, 1 equivalent of 6M HCl, 1.1 equivalents Captisol®-Na^+): 330.3 mOsmol/kg
Osmolality ([4]; 70 mg/mL FB, 1.1 equivalents CapAcid, 1 mL scale, recorded the next day after the solution had turned yellow-brown): 158.7 mOsmol/kg
Osmolality ([4]; *70 mg/mL API FB + molar equivalent of 6M HCl in water): 138.3* mOsm/kg
Osmolality [4, 15]: 99.3 mOsmol/kg and 92.7 mOsmol/kg
Osmolality [4, 16]: 1: 99.3 mOsm/kg and 2: 92.7 mOsm/kg
Osmolality ([4]; Captisol®-Na^+ formulation, *70 mg/mL API FB + 6M HCl, 1.1 molar equivalent Captisol®-Na^+): 330.3* mOsm/kg

CO[C@H]1C[C@@H]2CC[C@@H](C)[C@@](O)(O2)C(=O)C(=O)N2CCCC[C@H]2C(=O)O[C@H]([C@H](C)C[C@@H]2CC[C@@H](O)[C@H](OC)C2)CC(=O)[C@H](C)/C=C(\C)[C@@H](O)[C@@H](OC)C(=O)[C@H](C)C[C@H](C)/C=C/C=C/C=C/1C [Rapamycin, rapamycin]
reported strongest acidic pKa [5]: 9.96
strongest basic pKa [5]: −3

CCOC(=O)c1ncn2c1CN(C)C(=O)c1cc(F)ccc1-2 [Flumazenil]
Reported Freebase Solubility [3]: 1.2 mg/mL
pKa [6]: 2.87^21
Successful in a 70 mg/mL API-CapAcid Formulation (Y/N) [7]: unsuccessful

CCCN(CCc1cccs1)[C@H]1CCc2c(O)cccc2C1 [rotigotine]
solubility compared to higher API:captisol ratio ([8]; 1:1 ratio to captisol compared to 2:1 ratio): superior solubility
appearance at higher API:captisol ratio ([8]; 2:1 ratio to captisol): precipitation
pH of the ethanol solution prior to titration ([9]; API FB 100 mg + CapAcid 1 molar equivalent (H^+) in 10 mL 200 proof ethanol): 5.63
dissolution of 70 mg of the ethanol-prepared API-CapAcid solid in 1 mL water ([9]; visual, vortexed): did not dissolve in water
pH of the solution before titration ([1]; 1:1 ratio of API to CapAcid): 0.93
final pH ([1]; 1:1 ratio of API to CapAcid): 5.49
pH of the solution before titration ([1]; 2:1 ratio of API to CapAcid): 1.66
final pH ([1]; 2:1 ratio of API to CapAcid): 5.51
Reported Salt Solubility [3]: 3.51 mg/mL^17
pKa (amine) [6]: 10.97
pKa (phenol) [6]: 10.03
concentration (FB equivalents) at which the freebase dissolved ([7]; 1:1 ratio of API to CapAcid (relative to the cyclodextrin)): 10000 µg/mL
concentration (FB equivalents) at which the freebase dissolved ([7]; 2:1 ratio of API to CapAcid (relative to the cyclodextrin)): 3000 µg/mL
dissolution by visual inspection ([7]; 2:1 ratio of API to CapAcid, 100 mg FB in 30 mL water (3 mg/mL)): most of the FB dissolved

CC(N)C12CC3CC(CC(C3)C1)C2 (centres unmarked) [Rimantadine HCl]
dissolution state of the formulation ([8]; HCl): fully dissolved; also recorded: incompletely dissolved
dissolution at 50 mg/mL, FB equivalents ([10]; HPLC grade water with 0.01% benzethonium chloride): did not dissolve
solubility ([10]; pH 6.83, aqueous with cosolvent or surfactant or cyclodextrin, thermodynamic from solid, HPLC grade water, stirred overnight, read-out: concentration at which the salt was soluble in water (FB equivalents)): 20 mg/mL
pH [1, 17]: 6.83
Osmolality [11, 17]: 205 mOsm/kg

CC(=O)[C@H]1CC[C@H]2[C@@H]3CC[C@H]4C[C@H](O)CC[C@]4(C)[C@H]3CC[C@]12C [Brexanolone]
oral bioavailability [12]: poor

CC(N)C12CC3CC(CC(C3)C1)C2 (centres unmarked) [Rimantadine]
pH of the solution prior to titration ([1]; 20 mg/mL API HCl (FB equivalent), 1.1 equivalents Captisol®-Na^+, before NaOH): 4.65
pH of the solution prior to titration [1, 14]: 1.93
pH ([1]; CapAcid-API Freebase Formulation (70 mg/mL API FB, 1.1 molar equivalent CapAcid), final pH after titration and dilution): 6.98
Successful in a 70 mg/mL API-CapAcid Formulation (Y/N) ([7]; listed as Rimantidine): prepared at 70 mg/mL without issue
solubility [13]: ~20 mg/mL
osmolality and pH in words ([4]; 70 mg/mL API-Cap formulation): isosmotic and PH neutral
Osmolality [4, 15]: 301.7 mOsmol/kg
Osmolality [4, 16]: 301.7 mOsm/kg
Osmolality ([4]; Captisol®-Na^+ formulation of API salt, ***20 mg/mL FB equivalents, 1.1 molar equivalent Captisol®-Na^+): 297.3*** mOsm/kg
Osmolality ([11]; 20 mg/mL API HCl (FB equivalent), 1.1 equivalents Captisol®-Na^+): 297.3 mOsmol/kg
Osmolality ([11]; API Salt in water, ***20 mg/mL FB equivalents): 195.3 mOsm/kg

Source: patent US20250345458A1, “COMPLEXING AGENT SALT FORMULATIONS OF PHARMACEUTICAL COMPOUNDS AT LOW STOICHIOMETRIC RATIOS” (Bexson Biomedical, Inc., priority 2022, published 2025)
